We go through eight molecules from ChEMBL document CHEMBL2021759, “Discovery of 4'-azido-2'-deoxy-2'-C-methyl cytidine and prodrugs thereof: a potent inhibitor of Hepatitis C virus replication” (Bioorg Med Chem Lett, 2012).

In data set [1] the test system is Rattus norvegicus. Nature of the data set: Oral bioavailability in Sprague-Dawley rat assessed as 4'-azido-2'-deoxy-2'-methylcytidine level at 20 umol/kg. The format is ADME, organism-based. To be noted: in vivo.
Data set [2] deals with Rattus norvegicus. The experiment in a line: AUCt in Sprague-Dawley rat assessed as 4'-azido-2'-deoxy-2'-methylcytidine level at 20 umol/kg, po. Type of data set: ADME, organism-based, Plasma. The following applies: in vivo.
Data set [3] concerns Rattus norvegicus. The experiment in a line: Apparent oral clearance in Sprague-Dawley rat assessed as 4'-azido-2'-deoxy-2'-methylcytidine level at 20 umol/kg, po. Type of data set: ADME, organism-based. To be noted: in vivo.
The subject of data set [4] is Hepatitis C virus. The experiment in a line: Antiviral activity against Hepatitis C virus infected in human HuH7-Rep cells assessed as inhibition of viral replication by luciferase reporter gene assay. The format is functional, organism-based, Hepacivirus hominis. To be noted: Huh-7.
In data set [5] the test system is Rattus norvegicus. Nature of the data set: Cmax in Sprague-Dawley rat assessed as 4'-azido-2'-deoxy-2'-methylcytidine level at 20 umol/kg, po. The format is ADME, organism-based. On the set-up: dose 20 umol/kg, route oral. To be noted: in vivo.
Data set [6] can be described thus: Cytotoxicity against human HuH7 cells by CMV-luciferase reporter gene assay. The format is cell-based, Huh-7. (Reporter assays use an easily measured gene product as a stand-in for the process of interest.)
Data set [7] concerns Rattus norvegicus. Nature of the data set: Tmax in Sprague-Dawley rat assessed as 4'-azido-2'-deoxy-2'-methylcytidine level at 20 umol/kg, po. Type of data set: ADME, organism-based. To be noted: in vivo.
Data set [8] has as its system Rattus norvegicus. The experiment in a line: AUC (0 to infinity) in Sprague-Dawley rat assessed as 4'-azido-2'-deoxy-2'-methylcytidine level at 20 umol/kg, po. Type of data set: ADME, organism-based, Plasma. Set-up: dose 20 umol/kg, route oral, time infinity. To be noted: in vivo.
Data set [9] in a line: Cytotoxicity against human MT4 cells by LTR-luciferase reporter gene assay. The format is cell-based.
Data set [10] can be described thus: AUC (0 to infinity) in Sprague-Dawley rat at 5 umol/kg, iv. Type of data set: ADME, organism-based. Set-up: dose 5 umol/kg, route intravenous, time infinity. The following applies: plasma.
Data set [11] in a line: Apparent oral clearance in Sprague-Dawley rat at 20 umol/kg, po. The format is ADME, organism-based. The following applies: in vivo.
Data set [12] can be described thus: Intrinsic clearance in rat liver microsomes. Type of data set: ADME, Microsome. To be noted: read-out: CLH. Background: Liver microsomes are a subcellular fraction often used to study metabolism.
A short description of data set [13]: Oral bioavailability in Sprague-Dawley rat at 20 umol/kg. To be noted: in vivo. Type of data set: ADME, organism-based.
Data set [14] in a line: AUC (0 to infinity) in Sprague-Dawley rat at 20 umol/kg, po. On the set-up: dose 20 umol/kg, time infinity, route oral. Type of data set: ADME, organism-based. To be noted: plasma.
The nature of data set [15]: Tmax in Sprague-Dawley rat at 20 umol/kg, po. To be noted: in vivo. The format is ADME, organism-based.
Data set [16] in a line: Intrinsic clearance in human liver microsomes. Type of data set: ADME, Microsome. To be noted: read-out: CLH.
Data set [17] is described as follows: AUCt in Sprague-Dawley rat at 20 umol/kg, po. The format is ADME, organism-based. The following applies: plasma.
Data set [18] in a line: Apparent permeability across human Caco2 cells. The format is ADME, cell-based. To be noted: Caco-2. For orientation: Caco-2 monolayers are a common model of the intestinal barrier.
Data set [19] can be described thus: AUCt in Sprague-Dawley rat at 5 umol/kg, iv. The format is ADME, organism-based. The following applies: plasma.
Data set [20] can be described thus: Cmax in Sprague-Dawley rat at 20 umol/kg, po. Type of data set: ADME, organism-based. To be noted: in vivo. Set-up: dose 20 umol/kg, route oral.

Usually CL/F stands for the apparent clearance, not corrected for the fraction that reaches the circulation. A word on the EC50: it is the concentration that produces a half-maximal response. By Cmax is commonly meant the peak of the concentration-time curve. The term CC50 denotes the concentration at which the toxic effect on the cells reaches its halfway point. Low readings indicate harm at low concentration, high ones better tolerance by the cells. As a reminder, the Tmax is the time at which the peak concentration occurs. In general, AUC refers to the area under the concentration-time curve, a measure of exposure. `CC(C)[C@H](N)C(=O)OC[C@@]1(N=[N+]=[N-])O[C@@H](n2ccc(N)nc2=O)[C@H](C)[C@@H]1OC(=O)[C@@H](N)C(C)C.O=C(O)C(F)(F)F`: the F in [1] stood at 7%. Also, in data set [2], the AUCt came to 1.22 µM·h. Also, in data set [3], the CL/F came out at 247 mL/min/kg. The half-maximal effective concentration (EC50) in data set [4] was found to be 1.9 µM. Besides, in data set [5], the Cmax was 290 nM. Besides, in [6], the CC50 is greater than 100 µM. The Tmax in [7] is 1 h. In [8], the AUC came to 1.35 µM·h.
As for `CC(C)[C@H](N)C(=O)OC[C@@]1(N=[N+]=[N-])O[C@@H](n2ccc(N)nc2=O)[C@H](C)[C@@H]1O.O=C(O)C(F)(F)F`, the F in [1] was found to be 8%. Also, in data set [2], the AUCt worked out at 1.56 µM·h. In addition, in data set [3], the CL/F was found to be 200 mL/min/kg. Moreover, the EC50 in [4] came to 0.79 µM. For the same molecule, in data set [5], the Cmax worked out at 500 nM. Moreover, the 50% cytotoxic concentration (CC50) in data set [6] is greater than 100 µM. Further, the Tmax in [7] came to 1 h. Also, the AUC in data set [8] was 1.68 µM·h.
Take `CC(C)[C@H](N)C(=O)O[C@H]1[C@@H](C)[C@H](n2ccc(N)nc2=O)O[C@@]1(CO)N=[N+]=[N-].O=C(O)C(F)(F)F`: the F in [1] is recorded as 20%. For the same molecule, the AUCt in data set [2] came out at 3.66 µM·h. Also, the CL/F in [3] is 82.2 mL/min/kg. Also, the EC50 in data set [4] came out at 0.72 µM. In addition, the Cmax in [5] was determined as 1140 nM. For the same molecule, the CC50 in data set [6] was greater than 100 µM. In addition, the Tmax in data set [7] stood at 1 h. For the same molecule, the AUC in [8] amounted to 4.06 µM·h.
For `C[C@H]1[C@H](n2ccc(=O)[nH]c2=O)O[C@@](COP(=O)(N[C@@H](C)C(=O)OCc2ccccc2)Oc2cccc3ccccc23)(N=[N+]=[N-])[C@H]1O` (stereo partly drawn), the EC50 in data set [4] stood at 6.2 µM. For the same molecule, the results for the CC50 in [6] and in [9] were greater than 100 µM and 41 µM, respectively.
On the same counts, the results for `C[C@H]1[C@H](n2ccc(N)nc2=O)O[C@@](COP(=O)(N[C@@H](C)C(=O)OCc2ccccc2)Oc2cccc3ccccc23)(N=[N+]=[N-])[C@H]1O` (stereo partly drawn) are 3 µM, greater than 100 µM and greater than 32 µM.
What is called IC50 is the concentration needed to halve the response being measured. Turning to `C[C@H]1[C@H](n2ccc(=O)[nH]c2=O)O[C@@](CO)(N=[N+]=[N-])[C@H]1O`, the IC50 in data set [4] is greater than 50 µM. Moreover, the CC50 in data set [6] and in data set [9] was greater than 100 µM each time.
As a reminder, the AUC(0-inf) is the area under the concentration-time curve extrapolated to infinity. A low value points to less exposure. What is called bioavailability is the share of a dose that reaches the circulation, judged against a reference dose that is usually intravenous. High values mean much systemic uptake, low ones little systemic uptake. The term AUC(0-t) denotes exposure summed from dosing to a finite time, without extrapolation to infinity. Read a high AUC(0-t) as more exposure. As usually defined, the Papp is the rate of passage across a membrane or cell layer, normalised by area and donor concentration. On to `C[C@H]1[C@H](n2ccc(N)nc2=O)O[C@@](CO)(N=[N+]=[N-])[C@H]1O`, for which the AUC(0-inf) in data set [10] was determined as 4.98 µM·h; in data set [14] it was 2.87 µM·h. Moreover, the apparent clearance (CL/F) in data set [11] is 119 mL/min/kg. The microsomal CLint in data set [12] and in data set [16] was less than 6 µL/min/mg each time. Further, the bioavailability in data set [13] came out at 14%. In addition, in data set [4], the EC50 was 1.2 µM. The Tmax in data set [15] is 2 h. Also, the area under the curve AUC(0-t) in [17] stood at 2.66 µM·h; in data set [19], 4.97 µM·h. Moreover, the Papp in data set [18] came to 1.7 ×10⁻⁶ cm/s. For the same molecule, the CC50 in data set [6] and in [9] was greater than 98 µM each time. The same molecule gave a Cmax in [20] of 610 nM.
Consider `CC(C)C(=O)OC[C@@]1(N=[N+]=[N-])O[C@@H](n2ccc(N)nc2=O)[C@H](C)[C@@H]1OC(=O)C(C)C`, for which, in data set [1], the F worked out at 65%. Also, the AUCt in data set [2] was found to be 12.7 µM·h. Besides, in [3], the CL/F worked out at 25.8 mL/min/kg. The EC50 in data set [4] came to 6.6 µM. Moreover, the microsomal CLint in data set [16] is greater than 300 µL/min/mg. Besides, in data set [5], the Cmax was 4650 nM. The apparent permeability (Papp) in [18] is 7.7 ×10⁻⁶ cm/s. Moreover, the CC50 in data set [6] was greater than 100 µM; in data set [9], greater than 50 µM. In addition, in data set [7], the Tmax turned out to be 1 h. Also, the AUC in data set [8] came to 12.9 µM·h.
